Data set [1] concerns HeLa. The data set is described as follows: Antiproliferation activity against human HeLa cells assessed as reduction in cell viability measured after 72 hrs by MTT assay. The data set is classed as functional, cell-based. In general terms: Tetrazolium dyes change colour on reduction, which living cells bring about.
Data set [2] in a line: Selectivity index, ratio of IC50 for human L02 cells to IC50 for human A549 cells assessed as reduction in cell viability measured after 72 hrs by MTT assay. The data set is classed as toxicity. To be noted: L02 cells versus A549 cells, read-out: Ratio IC50.
Data set [3] relates to L02. The data set is described as follows: Cytotoxicity against human L02 cells assessed as reduction in cell viability measured after 72 hrs by MTT assay. Format: cell-based. To be noted: L02, 72 h.
Data set [4] has as its system MCF7. The data set can be described thus: Antiproliferation activity against human MCF7 cells assessed as reduction in cell viability measured after 72 hrs by MTT assay. Format: functional, cell-based. To be noted: MCF7, 72 h.
Data set [5] relates to A549. The data set can be described thus: Antiproliferation activity against human A549 cells assessed as reduction in cell viability measured after 72 hrs by MTT assay. To be noted: A549, 72 h. Format: functional, cell-based.
Data set [6] concerns NCI-H1975. The data set can be described thus: Antiproliferation activity against human NCI-H1975 cells harboring EGFR T790M/L858R mutation assessed as reduction in cell viability measured after 72 hrs by MTT assay. The data set is classed as functional, cell-based. To be noted: NCI-H1975, 72 h.
The target in data set [7] is Epidermal growth factor receptor (Homo sapiens, UniProt P00533). The data set can be described thus: Inhibition of wild type EGFR (unknown origin) using FAM-labelled peptide as substrate incubated for 10 mins in presence of ATP by Kinase Glo luminescence assay. (In general: Kinase-Glo measures the ATP left after a reaction by luminescence.)
Chain of Epidermal growth factor receptor (Homo sapiens, UniProt P00533) (P00533 whole entry): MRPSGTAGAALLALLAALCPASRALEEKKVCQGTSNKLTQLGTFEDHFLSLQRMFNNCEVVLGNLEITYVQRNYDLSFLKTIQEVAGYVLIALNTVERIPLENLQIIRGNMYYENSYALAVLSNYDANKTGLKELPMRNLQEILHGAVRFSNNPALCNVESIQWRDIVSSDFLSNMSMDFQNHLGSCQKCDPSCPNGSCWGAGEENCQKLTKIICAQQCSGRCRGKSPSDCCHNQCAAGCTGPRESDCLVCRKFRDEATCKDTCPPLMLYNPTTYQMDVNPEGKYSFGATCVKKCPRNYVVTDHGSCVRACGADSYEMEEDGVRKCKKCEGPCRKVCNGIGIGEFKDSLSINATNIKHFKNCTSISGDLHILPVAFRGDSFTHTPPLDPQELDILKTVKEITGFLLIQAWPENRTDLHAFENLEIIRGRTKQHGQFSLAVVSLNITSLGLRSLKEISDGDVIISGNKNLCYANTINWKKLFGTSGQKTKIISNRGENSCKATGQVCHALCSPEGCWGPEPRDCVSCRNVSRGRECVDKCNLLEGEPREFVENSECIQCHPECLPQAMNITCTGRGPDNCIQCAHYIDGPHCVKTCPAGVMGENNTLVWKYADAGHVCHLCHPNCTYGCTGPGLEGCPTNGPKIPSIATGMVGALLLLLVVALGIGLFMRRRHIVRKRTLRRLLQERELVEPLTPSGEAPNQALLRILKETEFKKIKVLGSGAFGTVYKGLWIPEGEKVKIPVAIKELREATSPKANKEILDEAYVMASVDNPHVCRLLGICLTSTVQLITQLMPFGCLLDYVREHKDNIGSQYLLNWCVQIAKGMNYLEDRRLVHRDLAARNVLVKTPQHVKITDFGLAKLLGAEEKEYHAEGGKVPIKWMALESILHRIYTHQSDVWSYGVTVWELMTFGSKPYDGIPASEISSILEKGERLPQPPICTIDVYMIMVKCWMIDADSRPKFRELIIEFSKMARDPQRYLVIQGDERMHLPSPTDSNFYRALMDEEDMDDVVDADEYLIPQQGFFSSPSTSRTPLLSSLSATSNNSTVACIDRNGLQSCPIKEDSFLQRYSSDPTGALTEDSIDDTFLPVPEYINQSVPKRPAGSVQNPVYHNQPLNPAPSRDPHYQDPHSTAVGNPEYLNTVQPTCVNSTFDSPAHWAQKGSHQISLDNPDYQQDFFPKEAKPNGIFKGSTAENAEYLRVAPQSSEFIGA
In data set [8] the target is Epidermal growth factor receptor (Homo sapiens, UniProt P00533, T790M). The data set can be described thus: Inhibition of EGFR T790M mutant (unknown origin) using FAM-labelled peptide as substrate incubated for 10 mins fin presence of ATP by Kinase Glo luminescence assay.
Chain of Epidermal growth factor receptor (Homo sapiens, UniProt P00533, T790M) (P00533 25-1210 T790M limits assumed): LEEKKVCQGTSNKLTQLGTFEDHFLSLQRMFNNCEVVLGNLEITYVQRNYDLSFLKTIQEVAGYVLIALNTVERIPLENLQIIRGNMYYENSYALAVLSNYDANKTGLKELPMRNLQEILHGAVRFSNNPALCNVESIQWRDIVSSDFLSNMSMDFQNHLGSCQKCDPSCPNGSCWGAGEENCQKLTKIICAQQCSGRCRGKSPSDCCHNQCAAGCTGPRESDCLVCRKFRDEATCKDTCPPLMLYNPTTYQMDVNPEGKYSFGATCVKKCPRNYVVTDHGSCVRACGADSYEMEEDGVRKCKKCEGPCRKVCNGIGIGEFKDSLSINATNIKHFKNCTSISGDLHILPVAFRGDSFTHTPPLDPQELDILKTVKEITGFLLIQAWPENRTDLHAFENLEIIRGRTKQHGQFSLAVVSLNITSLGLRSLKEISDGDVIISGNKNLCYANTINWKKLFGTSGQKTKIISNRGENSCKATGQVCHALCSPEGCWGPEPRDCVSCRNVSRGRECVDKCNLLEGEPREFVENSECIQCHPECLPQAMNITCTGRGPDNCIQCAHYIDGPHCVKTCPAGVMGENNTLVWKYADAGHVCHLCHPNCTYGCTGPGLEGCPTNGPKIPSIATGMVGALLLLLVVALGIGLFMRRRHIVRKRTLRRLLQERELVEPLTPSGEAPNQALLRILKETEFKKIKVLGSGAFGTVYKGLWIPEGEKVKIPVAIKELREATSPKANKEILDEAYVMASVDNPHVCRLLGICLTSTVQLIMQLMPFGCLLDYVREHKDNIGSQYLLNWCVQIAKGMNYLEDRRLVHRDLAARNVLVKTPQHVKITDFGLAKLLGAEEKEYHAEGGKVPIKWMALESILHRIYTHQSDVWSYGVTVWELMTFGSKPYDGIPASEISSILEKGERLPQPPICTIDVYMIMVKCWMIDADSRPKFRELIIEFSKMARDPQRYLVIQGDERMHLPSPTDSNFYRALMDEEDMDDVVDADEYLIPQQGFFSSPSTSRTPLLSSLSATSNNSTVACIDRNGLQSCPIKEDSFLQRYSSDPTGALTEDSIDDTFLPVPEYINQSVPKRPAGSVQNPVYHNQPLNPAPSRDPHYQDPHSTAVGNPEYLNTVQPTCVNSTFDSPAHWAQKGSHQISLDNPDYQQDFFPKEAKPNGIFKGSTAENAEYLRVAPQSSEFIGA
Data set [9] has as its target Vascular endothelial growth factor receptor 2 (Homo sapiens) (UniProt P35968). The data set can be described thus: Inhibition of KDR (unknown origin) at 1 uM relative to control.
The species entered for data set [10] is Homo sapiens. The data set can be described thus: Inhibition of PI3K (unknown origin) at 1 uM relative to control.

As usually defined, the IC50 is the midpoint of a concentration-inhibition curve. What is called inhibition is the drop in the measured response relative to a control, in per cent. Low values mean a weak effect, high ones a strong effect.

Chain of Vascular endothelial growth factor receptor 2 (Homo sapiens) (P35968 whole entry): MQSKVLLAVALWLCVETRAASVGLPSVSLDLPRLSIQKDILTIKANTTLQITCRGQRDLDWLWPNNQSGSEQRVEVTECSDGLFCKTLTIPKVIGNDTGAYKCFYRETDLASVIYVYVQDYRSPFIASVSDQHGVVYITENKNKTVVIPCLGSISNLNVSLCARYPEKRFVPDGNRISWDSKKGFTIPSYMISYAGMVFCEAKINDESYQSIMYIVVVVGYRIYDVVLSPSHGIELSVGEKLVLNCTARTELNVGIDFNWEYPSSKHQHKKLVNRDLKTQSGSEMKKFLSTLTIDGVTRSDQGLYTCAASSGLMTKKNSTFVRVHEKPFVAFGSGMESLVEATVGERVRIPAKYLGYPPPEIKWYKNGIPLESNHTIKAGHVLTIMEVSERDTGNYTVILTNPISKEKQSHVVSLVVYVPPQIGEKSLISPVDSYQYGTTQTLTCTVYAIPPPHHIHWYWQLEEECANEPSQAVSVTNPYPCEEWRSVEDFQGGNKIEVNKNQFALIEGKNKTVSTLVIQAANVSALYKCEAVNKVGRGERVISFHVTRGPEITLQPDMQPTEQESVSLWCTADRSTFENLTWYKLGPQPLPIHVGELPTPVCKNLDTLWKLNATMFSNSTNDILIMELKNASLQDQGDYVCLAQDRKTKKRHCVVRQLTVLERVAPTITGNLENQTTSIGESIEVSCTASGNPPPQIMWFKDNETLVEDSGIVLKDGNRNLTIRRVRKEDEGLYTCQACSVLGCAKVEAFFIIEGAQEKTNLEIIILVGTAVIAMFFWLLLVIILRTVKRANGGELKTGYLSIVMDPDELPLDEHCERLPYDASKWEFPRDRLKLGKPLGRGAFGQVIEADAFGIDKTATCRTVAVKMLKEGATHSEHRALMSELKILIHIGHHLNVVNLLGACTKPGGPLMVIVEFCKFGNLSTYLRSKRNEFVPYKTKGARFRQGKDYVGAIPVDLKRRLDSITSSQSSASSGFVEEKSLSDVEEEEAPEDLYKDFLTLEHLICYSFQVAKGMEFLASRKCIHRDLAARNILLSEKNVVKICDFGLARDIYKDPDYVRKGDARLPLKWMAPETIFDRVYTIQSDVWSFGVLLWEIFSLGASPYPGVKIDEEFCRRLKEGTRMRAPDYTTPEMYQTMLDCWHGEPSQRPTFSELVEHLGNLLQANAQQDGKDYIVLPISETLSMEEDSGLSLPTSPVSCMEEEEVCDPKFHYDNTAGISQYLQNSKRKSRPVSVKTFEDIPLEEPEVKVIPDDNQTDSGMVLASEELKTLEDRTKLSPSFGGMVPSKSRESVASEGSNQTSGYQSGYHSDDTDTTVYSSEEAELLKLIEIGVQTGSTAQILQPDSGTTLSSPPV

Consider `CC(C)=CC(=O)Nc1cccc(Oc2nc(Nc3ccn(C)n3)nc3c2CSCC3)c1`, for which the IC50 was above 50 µM in [1], above 50 µM in data set [3], above 50 µM in data set [4] and 44.2 µM in data set [5]. The selectivity ratio at 72 h in data set [2] is above 1.13.

As to `CCC/C=C/C(=O)Nc1cccc(Oc2nc(Nc3ccn(C)n3)nc3c2CSCC3)c1`, the half-inhibitory concentration (IC50) in data set [1] was 17 µM; in data set [6] it was 13.6 µM; in data set [7], above 1 µM; in data set [8] it was above 1 µM; in data set [3] it was above 50 µM; in [4], 22.6 µM. For the same molecule, the IC50 in data set [5] worked out at 8.19 µM. Further, the selectivity ratio at 72 h in [2] is above 6.1.

`CC/C=C/C(=O)Nc1cccc(Oc2nc(Nc3ccc(OC)cc3)nc3c2CSCC3)c1`: the 50% inhibitory concentration (IC50) in data set [1] is 27.2 µM; in data set [6], 17.2 µM; in data set [3] it was above 50 µM; in [4] it was 31.4 µM; in data set [5], 20.1 µM. Also, the selectivity ratio at 72 h in data set [2] is above 2.49.

On to `CC/C=C/C(=O)Nc1cccc(Oc2nc(Nc3cccc(C#N)c3)nc3c2CSCC3)c1`, for which the IC50 in [1] is 31.8 µM; in [6], 17.2 µM; in data set [3], above 50 µM; in data set [4], 15.8 µM; in data set [5] it was 10.1 µM. Also, the selectivity ratio at 72 h in data set [2] was above 4.95.

Take `C/C=C/C(=O)Nc1cccc(Oc2nc(Nc3ccn(C)n3)nc3c2CSCC3)c1`: the half-maximal inhibitory concentration (IC50) in data set [1] is above 50 µM; in [6], 35.9 µM; in data set [3], above 50 µM; in [4], 40 µM; in data set [5], above 50 µM.

For `C=CC(=O)Nc1cccc(Oc2nc(Nc3ccn(C)n3)nc3c2CSCC3)c1`, the half-inhibitory concentration (IC50) in data set [1] was 25.8 µM; in data set [3], above 50 µM; in data set [4] it was above 50 µM; in [5] it was 18.6 µM. Further, in [2], the selectivity ratio at 72 h was above 2.7.

As for `C/C=C/C(=O)Nc1cccc(Oc2nc(Nc3cccc(OC)c3)nc3c2CSCC3)c1`, the IC50 was 13.8 µM in data set [1]; 12.5 µM in data set [6]; above 50 µM in [3]; 23.4 µM in [4]; 21.1 µM in data set [5]. For the same molecule, the selectivity ratio at 72 h in data set [2] was above 2.37.

For the molecule `Oc1cccc(-c2nc(N3CCOCC3)c3oc4ncccc4c3n2)c1`, the values for the inhibition in data set [9] and in data set [10] were 2.4% and 99.8%, respectively.

Take `COc1ccc(Nc2nc3c(c(Oc4cccc(NC(=O)/C=C/C(C)C)c4)n2)CSCC3)cn1`: the IC50 in [1] is 27.8 µM; in data set [3] it was above 50 µM; in [4], 37.1 µM; in data set [5], 24.2 µM. Also, the selectivity ratio at 72 h in [2] was above 2.06.

As to `CCC/C=C/C(=O)Nc1cccc(Oc2nc(Nc3ccc(OC)nc3)nc3c2CSCC3)c1`, the half-maximal inhibitory concentration (IC50) was 15.3 µM in [1]; 17.9 µM in data set [6]; above 50 µM in data set [3]; 26.8 µM in [4]; 10.8 µM in [5]. Moreover, the selectivity ratio at 72 h in data set [2] was above 4.62.

With `CC/C=C/C(=O)Nc1cccc(Oc2nc(Nc3ccn(C)n3)nc3c2CSCC3)c1`, the IC50 in data set [1] is above 50 µM; in [3] it was above 50 µM; in data set [4], above 50 µM; in data set [5], 36.8 µM. Further, the selectivity ratio at 72 h in data set [2] is above 1.36.

Consider `C=CC(=O)Nc1cccc(Oc2nc(Nc3ccc(OC)nc3)nc3c2CSCC3)c1`, for which the IC50 was 26.2 µM in data set [1]; 13.9 µM in data set [6]; above 50 µM in [3]; 17.2 µM in [4]; 14.6 µM in data set [5]. For the same molecule, the selectivity ratio at 72 h in data set [2] was above 3.43.

Take `CCC/C=C/C(=O)Nc1cccc(Oc2nc(Nc3cccc(OC)c3)nc3c2CSCC3)c1`: the half-maximal inhibitory concentration (IC50) in data set [1] was 33.8 µM; in data set [6] it was 11.9 µM; in [3], above 50 µM; in data set [4] it was 32 µM; in [5], 11.8 µM. For the same molecule, the selectivity ratio at 72 h in data set [2] was above 4.23.

Regarding `C=C(F)C(=O)Nc1cccc(Oc2nc(Nc3ccn(C)n3)nc3c2CSCC3)c1`, the IC50 in data set [1] is above 50 µM; in data set [6] it was 36.3 µM; in data set [3] it was 47.8 µM; in data set [4] it was above 50 µM; in data set [5], above 50 µM. Moreover, the selectivity ratio at 72 h in data set [2] is below 0.96.

As for `C=CC(=O)Nc1cccc(Oc2nc(Nc3cccc(OC)c3)nc3c2CSCC3)c1`, the IC50 is 28.9 µM in data set [1]; 9.64 µM in data set [6]; 48.9 µM in data set [3]; above 50 µM in data set [4]; 10.1 µM in data set [5].

Turning to `C/C=C/C(=O)Nc1cccc(Oc2nc(Nc3ccc(OC)nc3)nc3c2CSCC3)c1`, the IC50 was 16.5 µM in data set [1]; 13.9 µM in [6]; above 1 µM in data set [7]; above 1 µM in data set [8]; above 50 µM in data set [3]; 21.1 µM in [4]. Besides, the IC50 in data set [5] was 8.04 µM. In addition, the selectivity ratio at 72 h in data set [2] was above 6.22.

Consider `COc1ccc(Nc2nc3c(c(Oc4cccc(NC(=O)/C=C/C(C)C)c4)n2)CSCC3)cc1`, for which the IC50 in data set [1] is 22.9 µM; in data set [3], above 50 µM; in data set [4], above 50 µM; in data set [5], 25.9 µM. Moreover, the selectivity ratio at 72 h in data set [2] is above 1.93.

On to `C=C(F)C(=O)Nc1cccc(Oc2nc(Nc3cccc(OC)c3)nc3c2CSCC3)c1`, for which the IC50 was 44.8 µM in [1]; 26.1 µM in data set [6]; 41.2 µM in data set [3]; above 50 µM in [4]; 29.6 µM in data set [5]. Also, the selectivity ratio at 72 h in [2] worked out at 1.39.

On to `CC/C=C/C(=O)Nc1cccc(Oc2nc(Nc3cccc(OC)c3)nc3c2CSCC3)c1`, for which the concentration for half-maximal inhibition (IC50) in data set [1] is 27.2 µM; in data set [6], 10.8 µM; in [3], above 50 µM; in [4], 24.2 µM; in data set [5], 17.2 µM. The selectivity ratio at 72 h in [2] was above 2.9.

For the molecule `COc1ccc(Nc2nc3c(c(Oc4cccc(NC(=O)C=C(C)C)c4)n2)CSCC3)cc1`, the IC50 was 19.1 µM in data set [1], above 50 µM in data set [3], above 50 µM in data set [4] and 26.9 µM in data set [5]. Also, the selectivity ratio at 72 h in data set [2] was above 1.86.

Turning to `C/C=C/C(=O)Nc1cccc(Oc2nc(Nc3ccc(OC)cc3)nc3c2CSCC3)c1`, the IC50 is above 50 µM in [1], above 50 µM in data set [3], 24.3 µM in [4] and 22.2 µM in data set [5]. The selectivity ratio at 72 h in data set [2] is above 2.25.

Consider `CC(C)=CC(=O)Nc1cccc(Oc2nc(Nc3cccc(C#N)c3)nc3c2CSCC3)c1`, for which the IC50 in data set [1] is 29.2 µM; in data set [3], above 50 µM; in data set [4] it was above 50 µM; in [5], 36.9 µM. Also, the selectivity ratio at 72 h in [2] was above 1.36.

In the case of `C/C=C/C(=O)Nc1cccc(Oc2nc(Nc3cccc(C#N)c3)nc3c2CSCC3)c1`, the IC50 in data set [1] was 12.8 µM; in data set [6], 28.1 µM; in data set [3], above 50 µM; in data set [4], 21.4 µM; in data set [5] it was 17.2 µM. In data set [2], the selectivity ratio at 72 h is above 2.91.

Regarding `COc1cccc(Nc2nc3c(c(Oc4cccc(NC(=O)C=C(C)C)c4)n2)CSCC3)c1`, the IC50 in data set [1] is 19.1 µM; in data set [6], 21.9 µM; in [3] it was above 50 µM; in data set [4] it was above 50 µM; in data set [5], 19.8 µM. Moreover, the selectivity ratio at 72 h in [2] was above 2.52.

On to `CC(C)/C=C/C(=O)Nc1cccc(Oc2nc(Nc3ccn(C)n3)nc3c2CSCC3)c1`, for which the IC50 in data set [1] is 40.1 µM; in data set [3] it was above 50 µM; in [4] it was above 50 µM; in data set [5] it was 33.5 µM. In data set [2], the selectivity ratio at 72 h is above 1.49.

For the molecule `COc1ccc(Nc2nc3c(c(Oc4cccc(NC(=O)C=C(C)C)c4)n2)CSCC3)cn1`, the half-inhibitory concentration (IC50) is 29.2 µM in data set [1], above 50 µM in data set [3], 22.2 µM in data set [4] and 16.8 µM in data set [5]. For the same molecule, in data set [2], the selectivity ratio at 72 h is above 2.97.

Consider `CC(C)/C=C/C(=O)Nc1cccc(Oc2nc(Nc3cccc(C#N)c3)nc3c2CSCC3)c1`, for which the 50% inhibitory concentration (IC50) in data set [1] was 22.8 µM; in [3], above 50 µM; in data set [4], 29.6 µM; in [5] it was 35.9 µM. Further, in [2], the selectivity ratio at 72 h is above 1.39.

In the case of `CC/C=C/C(=O)Nc1cccc(Oc2nc(Nc3ccc(OC)nc3)nc3c2CSCC3)c1`, the IC50 in data set [1] is 31.2 µM; in [6] it was 13.2 µM; in [3], above 50 µM; in [4], 31.5 µM; in data set [5] it was 13.1 µM. Besides, the selectivity ratio at 72 h in [2] was above 3.81.

On to `C=C(C)C(=O)Nc1cccc(Oc2nc(Nc3ccn(C)n3)nc3c2CSCC3)c1`, for which the IC50 in data set [1] was above 50 µM; in [3], above 50 µM; in [4], above 50 µM; in data set [5] it was 46.9 µM. For the same molecule, the selectivity ratio at 72 h in [2] is above 1.06.

`CCC/C=C/C(=O)Nc1cccc(Oc2nc(Nc3ccc(OC)cc3)nc3c2CSCC3)c1`: the IC50 is 12.8 µM in data set [1]; 18.9 µM in [6]; above 50 µM in data set [3]; above 50 µM in [4]; 11.9 µM in data set [5]. Further, the selectivity ratio at 72 h in [2] was above 4.21.

As to `COc1cccc(Nc2nc3c(c(Oc4cccc(NC(=O)/C=C/C(C)C)c4)n2)CSCC3)c1`, the IC50 in [1] was above 50 µM; in data set [6], 25.1 µM; in data set [3], above 50 µM; in data set [4], 21.8 µM; in data set [5] it was 25.3 µM. Moreover, the selectivity ratio at 72 h in [2] was above 1.98.

For the origin of these results see ChEMBL document CHEMBL4725402, “Discovery of thiapyran-pyrimidine derivatives as potential EGFR inhibitors” (Bioorg Med Chem, 2020).
